Experimental data taken from patent publication US20240360075A1, “N-SUBSTITUTED C6 CYCLYL CARBOXAMIDE COMPOUNDS AND USES THEREOF” (ALCON INC., priority 2023, published 2024).

Biological target: T1, TRPM8 (Homo sapiens, UniProt Q7Z2W7)
T1 construct: purchased Eurofins (Cerep) item #3316
Experiment: TRPM8 Human Transient Potential Ion Channel Cell Based Agonist Calcium Flux Assay (Eurofins Cerep item #3316)
Conditions: for EC50: room temperature; for Emax: read-out: Percent Agonist
From the text: Compounds can be tested using the commercially available kit from Eurofins “TRPM8 Human Transient Potential Ion Channel Cell Based Agonist Calcium Flux Assay, Cerep” item #3316, or using the assay, referenced by Eurofins, and described in Behrendt et al. “Characterization of the mouse cold-menthol receptor TRPM8 and vanilloid receptor type-1 VR1 using a fluorometric imaging plate reader (FLIPR) assay,” Br J Pharmacol. 2004 Feb;141(4):737-45, which are each incorporated herein by reference. […] 4.
The assay is done at room temperature and measures calcium flux.

[1] = control activator ligand icilin

T1 sequence (Q7Z2W7 whole entry): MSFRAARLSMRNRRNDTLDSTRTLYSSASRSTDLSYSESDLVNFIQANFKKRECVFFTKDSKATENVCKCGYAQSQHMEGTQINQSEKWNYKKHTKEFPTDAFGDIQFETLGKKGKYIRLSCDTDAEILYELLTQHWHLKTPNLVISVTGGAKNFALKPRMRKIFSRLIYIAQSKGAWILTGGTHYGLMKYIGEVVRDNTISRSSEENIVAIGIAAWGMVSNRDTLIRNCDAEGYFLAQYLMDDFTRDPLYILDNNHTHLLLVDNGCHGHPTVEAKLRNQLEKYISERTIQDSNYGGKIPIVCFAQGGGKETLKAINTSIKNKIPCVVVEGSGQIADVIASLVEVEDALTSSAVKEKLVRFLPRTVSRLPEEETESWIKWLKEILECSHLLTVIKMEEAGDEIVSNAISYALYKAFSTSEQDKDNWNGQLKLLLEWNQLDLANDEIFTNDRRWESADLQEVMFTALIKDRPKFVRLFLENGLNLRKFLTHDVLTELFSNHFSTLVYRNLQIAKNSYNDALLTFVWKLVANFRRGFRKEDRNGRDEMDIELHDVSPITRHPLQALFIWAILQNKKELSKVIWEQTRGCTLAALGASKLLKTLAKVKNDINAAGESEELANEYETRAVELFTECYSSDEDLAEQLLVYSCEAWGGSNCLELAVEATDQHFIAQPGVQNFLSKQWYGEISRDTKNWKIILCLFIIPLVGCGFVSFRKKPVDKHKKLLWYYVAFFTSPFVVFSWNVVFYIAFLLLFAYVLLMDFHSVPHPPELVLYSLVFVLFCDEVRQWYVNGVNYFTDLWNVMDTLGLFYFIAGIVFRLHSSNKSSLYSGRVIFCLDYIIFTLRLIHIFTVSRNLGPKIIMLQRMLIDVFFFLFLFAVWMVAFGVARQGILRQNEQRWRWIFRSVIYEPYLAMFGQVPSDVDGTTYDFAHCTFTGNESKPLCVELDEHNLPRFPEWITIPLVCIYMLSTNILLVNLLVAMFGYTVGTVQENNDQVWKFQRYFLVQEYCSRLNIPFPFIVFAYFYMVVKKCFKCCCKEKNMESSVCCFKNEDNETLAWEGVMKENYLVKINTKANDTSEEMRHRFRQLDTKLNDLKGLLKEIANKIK

EC50	Emax [1]	Percent Agonist [1]	EC50 (no unit printed in this row)	Structure (SMILES)
> 10000 nM	–	–	–	COc1ccc(NC(=O)c2cccc(C(F)(F)F)c2)cc1 [Compound 174]
> 10000 nM	–	–	–	COC12CCC(NC(=O)[C@H]3CCC[C@@H](N)C3)(CC1)CC2 [Compound 171]
< 1000 nM	> 75%	–	–	CC(C)[C@@H]1CC[C@@H](C)C[C@H]1C(=O)N[C@H]1CC[C@H](N)C1 [Compound 34]
< 500 nM	> 100%	–	–	CC(C)[C@@H]1CC[C@@H](C)C[C@H]1C(=O)NC12CC(NC(=O)CO)(C1)C2 [Compound 47]
< 100 nM	> 75%	–	–	CC(C)[C@@H]1CC[C@@H](C)C[C@H]1C(=O)NC12CC(C(=O)OC(C)(C)C)(C1)C2 [Compound 51]
< 100 nM	> 75%	–	–	CC(C)[C@@H]1CC[C@@H](C)C[C@H]1C(=O)Nc1ccc(C2CC2)cc1 [Compound 6]
< 100 nM	> 75%	–	–	CC(C)[C@@H]1CC[C@@H](C)C[C@H]1C(=O)Nc1ccccc1CCN [Compound 67]
< 100 nM	> 75%	–	–	COC(=O)C12CC(NC(=O)[C@@H]3C[C@H](C)CC[C@H]3C(C)C)(C1)C2 [Compound 31]
24 nM	–	100%	–	COc1ccc(NC(=O)[C@@H]2C[C@H](C)CC[C@H]2C(C)C)cc1 [Compound 1]
< 1000 nM	> 100%	–	–	CC(C)[C@@H]1CC[C@@H](C)C[C@H]1C(=O)NC12CC(F)(C1)C2 [Compound 29]
< 10000 nM	> 75%	–	–	CC(C)[C@@H]1CC[C@@H](C)C[C@H]1C(=O)NCCC#N [Compound 99]
< 100 nM	> 50%	–	–	COc1ccc(NC(=O)[C@@H]2C[C@H](C)CC[C@H]2C(C)C)cn1 [Compound 74]
< 100 nM	> 75%	–	–	CC(C)[C@@H]1CC[C@@H](C)C[C@H]1C(=O)Nc1ccc(C2(O)COC2)cc1 [Compound 21]
< 500 nM	> 75%	–	–	COCCOCCOc1ccc(NC(=O)[C@@H]2C[C@H](C)CC[C@H]2C(C)C)cc1 [Compound 5]
< 500 nM	> 100%	–	–	CC(C)[C@@H]1CC[C@@H](C)C[C@H]1C(=O)Nc1ccc(B2OC(C)(C)C(C)(C)O2)cc1 [Compound 22]
< 500 nM	> 75%	–	–	CC(C)[C@@H]1CC[C@@H](C)C[C@H]1C(=O)N[C@@H]1CCC(F)(F)C1 [Compound 98]
< 5000 nM	> 75%	–	–	COC(=O)c1cc(NC(=O)[C@@H]2C[C@H](C)CC[C@H]2C(C)C)ccn1 [Compound 72]
> 10000 nM	> 75%	–	–	CC(C)[C@@H]1CC[C@@H](C)C[C@H]1C(=O)NC1CCN(C)CC1 [Compound 54]
< 1000 nM	> 100%	–	–	COC(=O)NC12CC(NC(=O)[C@@H]3C[C@H](C)CC[C@H]3C(C)C)(C1)C2 [Compound 37]
< 500 nM	> 100%	–	–	C=C(C)[C@@H]1CC[C@@H](C)C[C@H]1C(=O)Nc1ccc(OC)cc1 [Compound 107]
< 1000 nM	> 75%	–	–	COC(=O)C12CCC(NC(=O)[C@@H]3C[C@H](C)CC[C@H]3C(C)C)(CC1)CC2 [Compound 57]
< 1000 nM	> 75%	–	–	CC(C)[C@@H]1CC[C@@H](C)C[C@H]1C(=O)Nc1cncc(Cl)c1 [Compound 80]
< 500 nM	> 75%	–	–	CC(C)[C@@H]1CC[C@@H](C)C[C@H]1C(=O)NC1COC1 [Compound 38]

EC50	Emax [1]	Percent Agonist [1]	EC50 (no unit printed in this row)	Structure (SMILES)
< 500 nM	> 100%	–	–	CC(C)[C@@H]1CC[C@@H](C)C[C@H]1C(=O)NC12CCC(CO)(CC1)C2 [Compound 46]
< 500 nM	> 75%	–	–	CON(C)C(=O)C12CC(NC(=O)[C@@H]3C[C@H](C)CC[C@H]3C(C)C)(C1)C2 [Compound 49]
< 1000 nM	> 100%	–	–	CC(C)[C@@H]1CC[C@@H](C)C[C@H]1C(=O)NC12CC(CO)(C1)C2 [Compound 33]
< 7500 nM	> 75%	–	–	COC(=O)Cn1cc(NC(=O)[C@@H]2C[C@H](C)CC[C@H]2C(C)C)cn1 [Compound 68]
< 500 nM	> 75%	–	–	COc1ncc(NC(=O)[C@@H]2C[C@H](C)CC[C@H]2C(C)C)cc1F [Compound 82]
< 1000 nM	> 75%	–	–	CC(C)[C@@H]1CC[C@@H](C)C[C@H]1C(=O)NCC1CC1(F)F (stereo partly drawn) [Compound 89]
< 100 nM	> 75%	–	–	COCC12CC(NC(=O)[C@@H]3C[C@H](C)CC[C@H]3C(C)C)(C1)C2 [Compound 35]
–	> 75%	–	< 10000 nM	CC(C)[C@@H]1CC[C@@H](C)C[C@H]1C(=O)NC(=N)N [Compound 69]
< 2000 nM	> 75%	–	–	CC(C)[C@@H]1CC[C@@H](C)C[C@H]1C(=O)NC1CC2(COC2)C1 [Compound 32]
> 10000 nM	–	–	–	COc1ccc(NC(=O)[C@H]2CCC[C@@H](O)C2)cc1 [Compound 177]
< 100 nM	> 75%	–	–	CC(C)[C@@H]1CC[C@@H](C)C[C@H]1C(=O)Nc1ccc(CO)cc1 [Compound 15]
< 5000 nM	> 75%	–	–	C#CCNC(=O)[C@@H]1C[C@H](C)CC[C@H]1C(C)C [Compound 101]
< 5000 nM	> 75%	–	–	COc1ccc(CNC(=O)[C@@H]2C[C@H](C)CC[C@H]2C(C)C)cc1 [Compound 10]
< 5000 nM	> 50%	–	–	CC(C)[C@@H]1CC[C@@H](C)C[C@H]1C(=O)Nc1ccnc(CN(C)C)c1 [Compound 77]
> 10000 nM	–	–	–	CC(C)[C@@H]1CC[C@@H](C)C[C@H]1C(=O)NC12CC(C(=O)O)(C1)C2 [Compound 53]
< 5000 nM	> 75%	–	–	COc1ccc(NC(=O)[C@@H]2C[C@H](C)CC[C@H]2C(C)C)nc1Cl [Compound 75]
< 1000 nM	> 75%	–	–	COC(=O)CC12CC(NC(=O)[C@@H]3C[C@H](C)CC[C@H]3C(C)C)(C1)C2 [Compound 43]
< 500 nM	> 75%	–	–	CC(C)[C@@H]1CC[C@@H](C)C[C@H]1C(=O)Nc1cccc(C2(O)COC2)c1 [Compound 23]
< 100 nM	> 75%	–	–	COC12CCC(NC(=O)[C@@H]3C[C@H](C)CC[C@H]3C(C)C)(CC1)CC2 [Compound 55]
< 1000 nM	> 100%	–	–	CC(C)[C@@H]1CC[C@@H](C)C[C@H]1C(=O)NC12CC(CCO)(C1)C2 [Compound 45]
< 1000 nM	> 75%	–	–	CC(C)[C@@H]1CC[C@@H](C)C[C@H]1C(=O)NC1CC2(CCCO2)C1 (stereo partly drawn) [Compound 44]
< 5000 nM	> 75%	–	–	COCCOCCOc1cccc(NC(=O)[C@@H]2C[C@H](C)CC[C@H]2C(C)C)c1 [Compound 9]
< 10000 nM	> 75%	–	–	CC(C)[C@@H]1CC[C@@H](C)C[C@H]1C(=O)NC1CCS(=O)(=O)CC1 [Compound 36]

EC50	Emax [1]	Percent Agonist [1]	EC50 (no unit printed in this row)	Structure (SMILES)
> 10000 nM	–	–	–	CC(C)[C@@H]1CC[C@@H](C)C[C@H]1C(=O)NCC#N [Compound 97]
> 10000 nM	–	–	–	CC(C)[C@@H]1CC[C@@H](C)C[C@H]1C(=O)NC1CN(CC(=O)OC(C)(C)C)C1 [Compound 30]
< 1000 nM	> 100%	–	–	COCCO[C@H]1CC[C@H](NC(=O)[C@@H]2C[C@H](C)CC[C@H]2C(C)C)CC1 [Compound 52]
> 10000 nM	–	–	–	CC(C)[C@@H]1CC[C@@H](C)C[C@H]1C(=O)Nc1cc(C(=O)O)ns1 [Compound 64]
< 5000 nM	> 75%	–	–	COC(=O)C12CC(NC(=O)c3cc(C)ccc3C(C)C)(C1)C2 [Compound 170]
< 5000 nM	> 75%	–	–	CC(C)[C@@H]1CC[C@@H](C)C[C@H]1C(=O)NC12CC(C#N)(C1)C2 [Compound 27]
< 500 nM	> 75%	–	–	CC(C)[C@@H]1CC[C@@H](C)C[C@H]1C(=O)Nc1ccc(OCCN(C)C)cc1 [Compound 11]
> 10000 nM	> 5%	–	–	COc1ccc(NC(=O)[C@@H]2C[C@H](C)CC[C@H]2C(C)=O)cc1 [Compound 108]
< 100 nM	> 50%	–	–	CC(C)[C@@H]1CC[C@@H](C)C[C@H]1C(=O)Nc1ccc(N2CCOCC2)nc1 [Compound 73]
< 500 nM	> 75%	–	–	CC(C)[C@@H]1CC[C@@H](C)C[C@H]1C(=O)N[C@H]1CCC(F)(F)C1 [Compound 94]
< 1000 nM	> 75%	–	–	CC(C)[C@@H]1CC[C@@H](C)C[C@H]1C(=O)NCCC1CC1(F)F (stereo partly drawn) [Compound 91]
–	> 35%	–	–	CC(C)[C@@H]1CC[C@@H](C)C[C@H]1C(=O)NN1CCOCC1 [Compound 100]
< 1000 nM	> 75%	–	–	CC(C)[C@@H]1CC[C@@H](C)C[C@H]1C(=O)Nc1cnn(CCO)c1 [Compound 70]
< 100 nM	> 75%	–	–	CC(C)[C@@H]1CC[C@@H](C)C[C@H]1C(=O)Nc1ccc(S(C)(=O)=O)nc1 [Compound 84]
< 10000 nM	> 75%	–	–	CC(C)[C@@H]1CC[C@@H](C)C[C@H]1C(=O)NCC1(C#N)CC1 [Compound 93]
< 500 nM	> 100%	–	–	CO[C@H]1CC[C@H](NC(=O)[C@@H]2C[C@H](C)CC[C@H]2C(C)C)CC1 [Compound 50]
< 5000 nM	> 75%	–	–	CC(C)[C@@H]1CC[C@@H](C)C[C@H]1C(=O)Nc1ccncn1 [Compound 83]
< 5000 nM	> 100%	–	–	CC(C)[C@@H]1CC[C@@H](C)C[C@H]1C(=O)Nc1ccc(Cl)cn1 [Compound 86]
< 500 nM	> 100%	–	–	CC(C)[C@@H]1CC[C@@H](C)C[C@H]1C(=O)Nc1ccc(C2(CCO)COC2)cc1 [Compound 20]
> 10000 nM	–	–	–	COC12CCC(NC(=O)[C@H]3CCC[C@@H](NC(C)=O)C3)(CC1)CC2 [Compound 173]
> 10000 nM	–	–	–	CC(C)[C@@H]1CC[C@@H](C)C[C@H]1C(=O)N1CC(C)(CC(F)F)C1 [Compound 95]
< 5000 nM	> 35%	–	–	COc1ncc(NC(=O)[C@@H]2C[C@H](C)CC[C@H]2C(C)C)cc1C [Compound 88]
